Reference: patent US20150011423A1, “MEANS AND METHODS FOR ASSESSING KIDNEY TOXICITY” (BASF SE, priority 2011, published 2015)
Marks after values point to notes of the source that are not given here. One block for each compound: values may come before it.

Test system: rats
Assay: 28-day repeated dose study in rats with mass spectrometry-based plasma metabolite profiling (GC-MS, LC-MS, SPE-LC-MS); treatment ratios versus control
Settings: plasma
[1] = female rats, day 7, high dose, Table 4a inhibition of weak acid excretion
[2] = female rats, day 7, high dose, Table 4b inhibition of weak acid excretion
[3] = female rats, day 14, high dose, Table 4a inhibition of weak acid excretion
[4] = female rats, day 14, high dose, Table 4b inhibition of weak acid excretion
[5] = female rats, day 28, high dose, Table 4a inhibition of weak acid excretion
[6] = female rats, day 28, high dose, Table 4b inhibition of weak acid excretion
[7] = male rats, day 7, high dose, Table 4c inhibition of weak acid excretion
[8] = male rats, day 7, high dose, Table 4d inhibition of weak acid excretion
[9] = male rats, day 14, high dose, Table 4c inhibition of weak acid excretion
[10] = male rats, day 14, high dose, Table 4d inhibition of weak acid excretion
[11] = male rats, day 28, high dose, Table 4c inhibition of weak acid excretion
[12] = male rats, day 28, high dose, Table 4d inhibition of weak acid excretion
[13] = female rats, day 28, high dose, Table 5a tubular necrosis
[14] = female rats, day 28, high dose, Table 5b tubular necrosis
[15] = male rats, day 28, high dose, Table 8a direct tubular effect
[16] = male rats, day 28, high dose, Table 8b direct tubular effect
[17] = male rats, day 7, high dose, Table 7a interstitial nephritis
[18] = male rats, day 7, high dose, Table 7b interstitial nephritis
[19] = male rats, day 14, high dose, Table 7a interstitial nephritis
[20] = male rats, day 14, high dose, Table 7b interstitial nephritis
[21] = male rats, day 28, high dose, Table 7a interstitial nephritis
[22] = male rats, day 28, high dose, Table 7b interstitial nephritis

Structure (SMILES): Cc1cc(Cl)ccc1OCC(=O)O [MCPA]
- Glycerol, lipid fraction, treatment ratio versus control [1]: 1.69 *
- Linoleic acid (C18:cis[9,12]2), treatment ratio versus control [1]: 1.66 *
- Lysophosphatidylcholine (C18:2), treatment ratio versus control [1]: 1.38^
- Phosphatidylcholine (C16:0, C16:0), treatment ratio versus control [1]: 1.52 *
- Phosphatidylcholine (C16:0, C18:2), treatment ratio versus control [1]: 1.66 *
- Phosphatidylcholine (C16:0, C20:5), treatment ratio versus control [1]: 2.03 *
- Phosphatidylcholine (C16:1, C18:2), treatment ratio versus control [1]: 2.92 *
- Phosphatidylcholine (C18:0, C18:1), treatment ratio versus control [1]: 1.57 *
- Phosphatidylcholine (C18:1, C18:2), treatment ratio versus control [1]: 1.68^
- gamma-Linolenic acid (C18:cis[6,9,12]3), treatment ratio versus control [1]: 4.23 *
- Arginine, treatment ratio versus control [2]: 0.62 *
- Indole-3-lactic acid, treatment ratio versus control [2]: 0.24 *
- Ketoleucine, treatment ratio versus control [2]: 0.42 *
- Proline, treatment ratio versus control [2]: 0.61 *
- Tryptophan, treatment ratio versus control [2]: 0.17 *
- trans-4-Hydroxyproline, treatment ratio versus control [2]: 0.57^
- Glycerol, lipid fraction, treatment ratio versus control [3]: 1.38 *
- Linoleic acid (C18:cis[9,12]2), treatment ratio versus control [3]: 1.36 *
- Lysophosphatidylcholine (C18:2), treatment ratio versus control [3]: 1.45 *
- Phosphatidylcholine (C16:0, C16:0), treatment ratio versus control [3]: 1.8 *
- Phosphatidylcholine (C16:0, C18:2), treatment ratio versus control [3]: 1.82 *
- Phosphatidylcholine (C16:0, C20:5), treatment ratio versus control [3]: 2.09 *
- Phosphatidylcholine (C16:1, C18:2), treatment ratio versus control [3]: 2.88 *
- Phosphatidylcholine (C18:0, C18:1), treatment ratio versus control [3]: 1.74 *
- Phosphatidylcholine (C18:1, C18:2), treatment ratio versus control [3]: 2.12 *
- gamma-Linolenic acid (C18:cis[6,9,12]3), treatment ratio versus control [3]: 2.93 *
- Arginine, treatment ratio versus control [4]: 0.58 *
- Indole-3-lactic acid, treatment ratio versus control [4]: 0.24 *
- Ketoleucine, treatment ratio versus control [4]: 0.21 *
- Proline, treatment ratio versus control [4]: 0.45 *
- Tryptophan, treatment ratio versus control [4]: 0.18 *
- trans-4-Hydroxyproline, treatment ratio versus control [4]: 0.47 *
- Glycerol, lipid fraction, treatment ratio versus control [5]: 1.6 *
- Linoleic acid (C18:cis[9,12]2), treatment ratio versus control [5]: 1.28 *
- Lysophosphatidylcholine (C18:2), treatment ratio versus control [5]: 1.35 *
- Phosphatidylcholine (C16:0, C16:0), treatment ratio versus control [5]: 1.78 *
- Phosphatidylcholine (C16:0, C18:2), treatment ratio versus control [5]: 1.45 *
- Phosphatidylcholine (C16:0, C20:5), treatment ratio versus control [5]: 1.61 *
- Phosphatidylcholine (C16:1, C18:2), treatment ratio versus control [5]: 2.45 *
- Phosphatidylcholine (C18:0, C18:1), treatment ratio versus control [5]: 1.56 *
- Phosphatidylcholine (C18:1, C18:2), treatment ratio versus control [5]: 1.78 *
- gamma-Linolenic acid (C18:cis[6,9,12]3), treatment ratio versus control [5]: 2.99 *
- Arginine, treatment ratio versus control [6]: 0.58 *
- Indole-3-lactic acid, treatment ratio versus control [6]: 0.23 *
- Ketoleucine, treatment ratio versus control [6]: 0.15 *
- Proline, treatment ratio versus control [6]: 0.42 *
- Tryptophan, treatment ratio versus control [6]: 0.16 *
- trans-4-Hydroxyproline, treatment ratio versus control [6]: 0.6 *
- 3-Indoxylsulfate, treatment ratio versus control [7]: 0.72^
- Aspartate, treatment ratio versus control [7]: 0.58 *
- Ceramide (d18:1, C24:0), treatment ratio versus control [7]: 1.2
- Cholesterolester No 01, treatment ratio versus control [7]: 0.97^
- Lysophosphatidylethanolamine (C22:5), treatment ratio versus control [7]: 1.16^
- Phosphatidylcholine (C16:0, C20:5), treatment ratio versus control [7]: 1.73 *
- gamma-Linolenic acid (C18:cis[6,9,12]3), treatment ratio versus control [7]: 1.69 *
- Arachidonic acid (C20:cis[5,8,11,14]4), treatment ratio versus control [8]: 0.27 *
- Arginine, treatment ratio versus control [8]: 0.72 *
- Aspartate, treatment ratio versus control [8]: 0.58 *
- Choline plasmalogen (C18, C20:4), treatment ratio versus control [8]: 0.64 *
- Cytosine, treatment ratio versus control [8]: 0.63 *
- Glucose, treatment ratio versus control [8]: 0.75 *
- Indole-3-lactic acid, treatment ratio versus control [8]: 0.36 *
- Lysine, treatment ratio versus control [8]: 0.4 *
- Lysophosphatidylcholine (C18:0), treatment ratio versus control [8]: 0.81 *
- Methionine, treatment ratio versus control [8]: 0.66 *
- Nervonic acid (C24:cis[15]1), treatment ratio versus control [8]: 0.67 *
- Phosphatidylcholine (C18:0, C20:4), treatment ratio versus control [8]: 0.36 *
- Ribal, treatment ratio versus control [8]: 0.94 *
- 3-Indoxylsulfate, treatment ratio versus control [9]: 1.53 *
- Aspartate, treatment ratio versus control [9]: 1.01^
- Ceramide (d18:1, C24:0), treatment ratio versus control [9]: 2.39 *
- Cholesterolester No 01, treatment ratio versus control [9]: 1.27 *
- Lysophosphatidylethanolamine (C22:5), treatment ratio versus control [9]: 1.08^
- Phosphatidylcholine (C16:0, C20:5), treatment ratio versus control [9]: 1.82 *
- gamma-Linolenic acid (C18:cis[6,9,12]3), treatment ratio versus control [9]: 2.68 *
- Arachidonic acid (C20:cis[5,8,11,14]4), treatment ratio versus control [10]: 0.42 *
- Arginine, treatment ratio versus control [10]: 0.57 *
- Aspartate, treatment ratio versus control [10]: 1.01^
- Choline plasmalogen (C18, C20:4), treatment ratio versus control [10]: 0.76 *
- Cytosine, treatment ratio versus control [10]: 0.63 *
- Glucose, treatment ratio versus control [10]: 0.72 *
- Indole-3-lactic acid, treatment ratio versus control [10]: 0.38
- Lysine, treatment ratio versus control [10]: 0.3 *
- Lysophosphatidylcholine (C18:0), treatment ratio versus control [10]: 0.83 *
- Methionine, treatment ratio versus control [10]: 0.59 *
- Nervonic acid (C24:cis[15]1), treatment ratio versus control [10]: 0.74 *
- Phosphatidylcholine (C18:0, C20:4), treatment ratio versus control [10]: 0.55 *
- Ribal, treatment ratio versus control [10]: 0.89 *
- 3-Indoxylsulfate, treatment ratio versus control [11]: 1.92 *
- Aspartate, treatment ratio versus control [11]: 0.69^
- Ceramide (d18:1, C24:0), treatment ratio versus control [11]: 1.72 *
- Cholesterolester No 01, treatment ratio versus control [11]: 1.32 *
- Lysophosphatidylethanolamine (C22:5), treatment ratio versus control [11]: 1.1
- Phosphatidylcholine (C16:0, C20:5), treatment ratio versus control [11]: 2.11 *
- gamma-Linolenic acid (C18:cis[6,9,12]3), treatment ratio versus control [11]: 2.54 *
- Arachidonic acid (C20:cis[5,8,11,14]4), treatment ratio versus control [12]: 0.26 *
- Arginine, treatment ratio versus control [12]: 0.68 *
- Aspartate, treatment ratio versus control [12]: 0.69 *
- Choline plasmalogen (C18, C20:4), treatment ratio versus control [12]: 0.45 *
- Cytosine, treatment ratio versus control [12]: 0.6 *
- Glucose, treatment ratio versus control [12]: 0.6 *
- Indole-3-lactic acid, treatment ratio versus control [12]: 0.3 *
- Lysine, treatment ratio versus control [12]: 0.33 *
- Lysophosphatidylcholine (C18:0), treatment ratio versus control [12]: 0.73 *
- Methionine, treatment ratio versus control [12]: 0.64 *
- Nervonic acid (C24:cis[15]1), treatment ratio versus control [12]: 0.76 *
- Phosphatidylcholine (C18:0, C20:4), treatment ratio versus control [12]: 0.24 *
- Ribal, treatment ratio versus control [12]: 0.77 *

Structure (SMILES): ClC(Cl)=C(Cl)C(Cl)=C(Cl)Cl [Hexachlorobutadiene]
- Docosahexaenoic acid (C22:cis[4,7,10,13,16,19]6), treatment ratio versus control [13]: 1.19 *
- Docosapentaenoic acid (C22:cis[7,10,13,16,19]5), treatment ratio versus control [13]: 1.61 *
- Eicosanoic acid (C20:0), treatment ratio versus control [13]: 1.56 *
- Glycerol, lipid fraction, treatment ratio versus control [13]: 1.29 *
- Leucine, treatment ratio versus control [13]: 1.34 *
- Phosphate (inorganic and organic phosphates), treatment ratio versus control [13]: 1.19 *
- Hippuric acid, treatment ratio versus control [14]: 0.35 *
- Lactate, treatment ratio versus control [14]: 0.62 *
- Glycerol-3-phosphate, polar fraction, treatment ratio versus control [15]: 1.58 *
- Isoleucine, treatment ratio versus control [15]: 1.11 *
- Leucine, treatment ratio versus control [15]: 1.17 *
- Lysophosphatidylethanolamine (C22:0), treatment ratio versus control [15]: 1.33 *
- Ornithine, treatment ratio versus control [15]: 1.35 *
- TAG No 02, treatment ratio versus control [15]: 1.47 *
- Threonine, treatment ratio versus control [15]: 1.3 *
- 14-Methylhexadecanoic acid, treatment ratio versus control [16]: 0.82 *
- 16-Methylheptadecanoic acid, treatment ratio versus control [16]: 0.51 *
- 18-Hydroxy-11-deoxycorticosterone, treatment ratio versus control [16]: 0.49 *
- Citrate, treatment ratio versus control [16]: 0.93 *
- DAG (C18:1, C18:2), treatment ratio versus control [16]: 0.66 *
- Elaidic acid (C18:trans[9]1), treatment ratio versus control [16]: 0.8 *
- Isopalmitic acid (C16:0), treatment ratio versus control [16]: 0.61 *
- Ketoleucine, treatment ratio versus control [16]: 0.91 *
- Linolenic acid (C18:cis[9,12,15]3), treatment ratio versus control [16]: 0.6 *
- Lysophosphatidylcholine (C18:0), treatment ratio versus control [16]: 0.97 *
- Oleic acid (C18:cis[9]1), treatment ratio versus control [16]: 0.71 *
- Palmitoleic acid (C16:cis[9]1), treatment ratio versus control [16]: 0.25 *
- TAG (C16:0, C16:1), treatment ratio versus control [16]: 0.51 *
- trans-4-Hydroxyproline, treatment ratio versus control [16]: 0.74 *

- Eicosanoic acid (C20:0), treatment ratio versus control [17]: 1.81 *
- Glucuronic acid, treatment ratio versus control [17]: 0.85 *
- Glycerol, polar fraction, treatment ratio versus control [18]: 0.93^
- Isopalmitic acid (C16:0), treatment ratio versus control [18]: 0.63 *
- Kynurenic acid, treatment ratio versus control [18]: 0.75 *
- Glucuronic acid, treatment ratio versus control [19]: 1
- myo-Inositol-2-phosphate, treatment ratio versus control [19]: 1.01
- Glycerol, polar fraction, treatment ratio versus control [20]: 0.86^
- Isopalmitic acid (C16:0), treatment ratio versus control [20]: 0.54 *
- Kynurenic acid, treatment ratio versus control [20]: 0.75 *
- Glucuronic acid, treatment ratio versus control [21]: 1
- Lignoceric acid (C24:0), treatment ratio versus control [21]: 1.3 *
- Sphingomyelin (d18:1, C16:0), treatment ratio versus control [21]: 1.09
- Threonine, treatment ratio versus control [21]: 1.55 *
- Glycerol, polar fraction, treatment ratio versus control [22]: 0.73 *
- Isopalmitic acid (C16:0), treatment ratio versus control [22]: 0.68 *
- Kynurenic acid, treatment ratio versus control [22]: 0.71^
Structure (SMILES): C[C@H](CCC(=O)O)[C@H]1CC[C@H]2[C@@H]3CC[C@@H]4C[C@H](O)CC[C@]4(C)[C@H]3CC[C@]12C [Lithocholic acid]
